In patent US20230271964A1, “5-AMINO-8-(4-PYRIDYL)-[1,2,4]TRIAZOLO[4,3-C]PYRIMIDIN-3-ONE COMPOUNDS FOR USE AGAINST CANCER” (ASTRAZENECA AB, priority 2020, published 2023):

Columns and labels:
[1] = molecular target: human adenosine A2A receptor (Homo sapiens (Human), UniProt P29274); assay: Adenosine receptor inhibition binding assay, [3H]ZM241385, HEK293 A2A receptor membranes; settings: 1 nM [3H]ZM241385, HEK293-hA2A membranes, 25° C., 1 h, Ki from IC50 by Cheng-Prusoff
Procedure: (§1) Inhibition binding assays were performed using 0.2 µg of membranes prepared from HEK293 cells infected with BacMam human adenosine A2A receptor or 1.4 µg of membranes prepared from HEK293 cells infected with BacMam human adenosine A1 receptor. Membranes were incubated in 50 mM Tris-HCl (HEK293-hA2A; pH 7.4) or 50 mM Tris-HCl, 100 mM NaCl, 10 mM MgCl2 (CHO-hA1; pH 7.4) in the presence of varying concentrations of test compound and 1 nM [^3H]ZM241385 (HEK293-hA2A) or [^3H]DPCPX (CHO-hA1) at 25° C. for 1 h. The assay was then terminated by rapid filtration onto GF/B grade Unifilter plates using a TomTec cell harvester, followed by 5 × 0.5 ml washes with ddH2O. Nonspecific binding was defined in the presence of 1 µM CGS 15943 (HEK293-hA2A) or 1 µM DPCPX (CHO-hA1). Bound radioactivity was determined by liquid scintillation counting and inhibition curves were analysed using a four-parameter logistic equation. IC50 values were converted to Ki values with the Cheng-Prusoff equation using a KD value derived from saturation binding studies.

[2] = molecular target: human adenosine A1 receptor (Homo sapiens (Human), UniProt P30542); assay: Adenosine receptor inhibition binding assay, [3H]DPCPX, A1 receptor membranes; settings: 1 nM [3H]DPCPX, 25° C., 1 h, Ki from IC50 by Cheng-Prusoff
Sequence of human adenosine A1 receptor (P30542 whole entry): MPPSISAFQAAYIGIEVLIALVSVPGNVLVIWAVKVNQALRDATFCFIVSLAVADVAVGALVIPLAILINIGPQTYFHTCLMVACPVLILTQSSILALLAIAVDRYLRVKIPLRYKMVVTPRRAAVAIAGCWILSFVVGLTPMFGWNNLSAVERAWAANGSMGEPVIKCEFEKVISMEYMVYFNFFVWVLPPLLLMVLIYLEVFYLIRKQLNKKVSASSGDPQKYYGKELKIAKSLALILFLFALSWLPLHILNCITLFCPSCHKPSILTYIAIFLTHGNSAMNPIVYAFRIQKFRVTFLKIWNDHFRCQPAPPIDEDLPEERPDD
Procedure: as §1

Sequence of human adenosine A2A receptor (P29274 whole entry): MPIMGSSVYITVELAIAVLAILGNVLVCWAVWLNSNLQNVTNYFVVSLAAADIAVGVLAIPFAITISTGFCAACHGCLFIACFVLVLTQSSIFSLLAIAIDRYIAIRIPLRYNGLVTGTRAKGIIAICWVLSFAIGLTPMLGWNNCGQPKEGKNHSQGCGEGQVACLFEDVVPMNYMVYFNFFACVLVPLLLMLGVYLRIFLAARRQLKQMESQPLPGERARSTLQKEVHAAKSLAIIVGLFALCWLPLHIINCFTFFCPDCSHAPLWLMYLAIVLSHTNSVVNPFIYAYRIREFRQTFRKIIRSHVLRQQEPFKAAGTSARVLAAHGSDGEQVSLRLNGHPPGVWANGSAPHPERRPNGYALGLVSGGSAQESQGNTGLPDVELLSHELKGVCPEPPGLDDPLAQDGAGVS

| SMILES | Ki ([1]; read-out: A2A pKi (converted)) | Ki ([2]; read-out: A1 pKi (converted)) | A2A pKi [1] | A1 pKi [2] |
| --- | --- | --- | --- | --- |
| [2H]c1c([2H])c([2H])c(-c2nc(N)n3c(=O)n(Cc4ncoc4C)nc3c2-c2cc(CO)nc(OC)c2)c([2H])c1[2H] [Example 1-63, 5-amino-8-[2-(hydroxymethyl)-6-methoxy-4-pyridyl]-2-[(5-methyloxazol-4-yl)methyl]-7-(2,3,4,5,6-pentadeuteriophenyl)-[1,2,4]triazolo[4,3-c]pyrimidin-3-one] | 0.0794 nM | 316 nM |  |  |
| COc1cc(-c2c(-c3ccc(F)cc3)nc(N)n3c(=O)n(Cc4nccn4C)nc23)cc(CO)n1 [Example 1-65, 5-amino-7-(4-fluorophenyl)-8-[2-(hydroxymethyl)-6-methoxy-4-pyridyl]-2-[(1-methylimidazol-2-yl)methyl]-[1,2,4]triazolo[4,3-c]pyrimidin-3-one] |  |  | 10.0 | 7.1 |
| Cc1cc(-c2c(-c3ccccc3)nc(N)n3c(=O)n(C4CCN(C(=O)OC(C)(C)C)C4)nc23)cc(C)n1 (stereo not drawn) [Example 2-1, tert-butyl 3-[5-amino-8-(2,6-dimethyl-4-pyridyl)-3-oxo-7-phenyl-[1,2,4]triazolo[4,3-c]pyrimidin-2-yl]pyrrolidine-1-carboxylate] |  |  | 7.7 | 6.8 |
| Cc1cc(-c2c(-c3ccccc3)nc(N)n3c(=O)n(C4CCNC4)nc23)cc(C)n1 (stereo not drawn) [Example 2-2, 5-amino-8-(2,6-dimethyl-4-pyridyl)-7-phenyl-2-pyrrolidin-3-yl-[1,2,4]triazolo[4,3-c]pyrimidin-3-one] |  |  | 7.4 | 5.7 |
| Cc1cc(-c2c(-c3ccccc3)nc(N)n3c(=O)n(C4CCN(C)C4)nc23)cc(C)n1 (stereo not drawn) [Example 2-3, 5-amino-8-(2,6-dimethyl-4-pyridyl)-2-(1-methylpyrrolidin-3-yl)-7-phenyl-[1,2,4]triazolo[4,3-c]pyrimidin-3-one] |  |  | 7.8 | 6.1 |
| Cc1cc(-c2c(-c3ccccc3)nc(N)n3c(=O)n(CC4CCCN4C(=O)OC(C)(C)C)nc23)cc(C)n1 (stereo not drawn) [Example 2-4, tert-butyl 2-[[5-amino-8-(2,6-dimethyl-4-pyridyl)-3-oxo-7-phenyl-[1,2,4]triazolo[4,3-c]pyrimidin-2-yl]methyl]pyrrolidine-1-carboxylate] |  |  | 7.9 | 6.6 |
| Cc1cc(-c2c(-c3ccccc3)nc(N)n3c(=O)n(CC4CCCN4)nc23)cc(C)n1 (stereo not drawn) [Example 2-5, 5-amino-8-(2,6-dimethyl-4-pyridyl)-7-phenyl-2-(pyrrolidin-2-ylmethyl)-[1,2,4]triazolo[4,3-c]pyrimidin-3-one] |  |  | 7.4 | 6.1 |
| Cc1cc(-c2c(-c3ccccc3)nc(N)n3c(=O)n(CC4CCCN4C)nc23)cc(C)n1 (stereo not drawn) [Example 2-6, 5-amino-8-(2,6-dimethyl-4-pyridyl)-2-[(1-methylpyrrolidin-2-yl)methyl]-7-phenyl-[1,2,4]triazolo[4,3-c]pyrimidin-3-one] |  |  | 9.1 | 6.2 |
| Cc1cc(-c2c(-c3ccccc3)nc(N)n3c(=O)n(C[C@H]4CCCN4C)nc23)cc(C)n1 [Example 2-7, 5-amino-8-(2,6-dimethyl-4-pyridyl)-2-[[(2R)-1-methylpyrrolidin-2-yl]methyl]-7-phenyl-[1,2,4]triazolo[4,3-c]pyrimidin-3-one] |  |  | 9.3 | 7.4 |
| Cc1cc(-c2c(-c3ccccc3)nc(N)n3c(=O)n(C[C@@H]4CCCN4C)nc23)cc(C)n1 [Example 2-8, 5-amino-8-(2,6-dimethyl-4-pyridyl)-2-[[(2S)-1-methylpyrrolidin-2-yl]methyl]-7-phenyl-[1,2,4]triazolo[4,3-c]pyrimidin-3-one] |  |  | 9.0 | 6.8 |
| COCCN1CCC[C@H]1Cn1nc2c(-c3cc(C)nc(C)c3)c(-c3ccccc3)nc(N)n2c1=O [Example 2-9, 5-amino-8-(2,6-dimethyl-4-pyridyl)-2-[[(2S)-1-(2-methoxyethyl)pyrrolidin-2-yl]methyl]-7-phenyl-[1,2,4]triazolo[4,3-c]pyrimidin-3-one] |  |  | 8.4 | 6.1 |
| COCCN1CCC[C@@H]1Cn1nc2c(-c3cc(C)nc(C)c3)c(-c3ccccc3)nc(N)n2c1=O [Example 2-10, 5-amino-8-(2,6-dimethyl-4-pyridyl)-2-[[(2R)-1-(2-methoxyethyl)pyrrolidin-2-yl]methyl]-7-phenyl-[1,2,4]triazolo[4,3-c]pyrimidin-3-one] |  |  | 8.2 | 6.3 |
| Cc1cc(-c2c(-c3ccccc3)nc(N)n3c(=O)n(C[C@@H]4CC(F)(F)CN4)nc23)cc(C)n1 [Example 2-11, 5-amino-2-[[(2S)-4,4-difluoropyrrolidin-2-yl]methyl]-8-(2,6-dimethyl-4-pyridyl)-7-phenyl-[1,2,4]triazolo[4,3-c]pyrimidin-3-one] |  |  | 8.7 | 6.0 |
| Cc1cc(-c2c(-c3ccccc3)nc(N)n3c(=O)n(C[C@H]4CC(F)(F)CN4)nc23)cc(C)n1 [Example 2-12, 5-amino-2-[[(2R)-4,4-difluoropyrrolidin-2-yl]methyl]-8-(2,6-dimethyl-4-pyridyl)-7-phenyl-[1,2,4]triazolo[4,3-c]pyrimidin-3-one] |  |  | 8.1 | 6.4 |
| Cc1cc(-c2c(-c3ccccc3)nc(N)n3c(=O)n(C[C@@H]4CC(F)(F)CN4C)nc23)cc(C)n1 [Example 2-13, 5-amino-2-[[(2S)-4,4-difluoro-1-methyl-pyrrolidin-2-yl]methyl]-8-(2,6-dimethyl-4-pyridyl)-7-phenyl-[1,2,4]triazolo[4,3-c]pyrimidin-3-one] |  |  | 8.2 | 6.3 |
| Cc1cc(-c2c(-c3ccccc3)nc(N)n3c(=O)n(C[C@H]4CCCO4)nc23)cc(C)n1 [Example 2-16, 5-amino-8-(2,6-dimethyl-4-pyridyl)-7-phenyl-2-[[(2R)-tetrahydrofuran-2-yl]methyl]-[1,2,4]triazolo[4,3-c]pyrimidin-3-one] |  |  | 9.2 | 6.7 |
| Cc1cc(-c2c(-c3ccccc3)nc(N)n3c(=O)n(C[C@H]4C[C@H](F)CN4)nc23)cc(C)n1 [Example 2-18, 5-amino-8-(2,6-dimethyl-4-pyridyl)-2-[[(2R,4S)-4-fluoropyrrolidin-2-yl]methyl]-7-phenyl-[1,2,4]triazolo[4,3-c]pyrimidin-3-one] |  |  | 8.2 | 6.4 |
| Cc1cc(-c2c(-c3ccccc3)nc(N)n3c(=O)n(C[C@H]4C[C@@H](F)CN4)nc23)cc(C)n1 [Example 2-19, 5-amino-8-(2,6-dimethyl-4-pyridyl)-2-[[(2R,4R)-4-fluoropyrrolidin-2-yl]methyl]-7-phenyl-[1,2,4]triazolo[4,3-c]pyrimidin-3-one] |  |  | 8.0 | 6.2 |
| Cc1cc(-c2c(-c3ccccc3)nc(N)n3c(=O)n(C[C@@H]4C[C@H](F)CN4)nc23)cc(C)n1 [Example 2-20, 5-amino-8-(2,6-dimethyl-4-pyridyl)-2-[[(2S,4S)-4-fluoropyrrolidin-2-yl]methyl]-7-phenyl-[1,2,4]triazolo[4,3-c]pyrimidin-3-one] |  |  | 8.5 | 6.3 |
| Cc1cc(-c2c(-c3ccccc3)nc(N)n3c(=O)n(C[C@@H]4C[C@@H](F)CN4)nc23)cc(C)n1 [Example 2-21, 5-amino-8-(2,6-dimethyl-4-pyridyl)-2-[[(2S,4R)-4-fluoropyrrolidin-2-yl]methyl]-7-phenyl-[1,2,4]triazolo[4,3-c]pyrimidin-3-one] |  |  | 8.4 | 6.4 |
| Cc1cc(-c2c(-c3ccccc3)nc(N)n3c(=O)n(C[C@@H]4C[C@H](O)CN4)nc23)cc(C)n1 [Example 2-22, 5-amino-8-(2,6-dimethyl-4-pyridyl)-2-[[(2S,4S)-4-hydroxypyrrolidin-2-yl]methyl]-7-phenyl-[1,2,4]triazolo[4,3-c]pyrimidin-3-one] |  |  | 8.2 | 5.9 |
| Cc1cc(-c2c(-c3ccccc3)nc(N)n3c(=O)n(C[C@H]4C[C@@H](O)CN4)nc23)cc(C)n1 [Example 2-23, 5-amino-8-(2,6-dimethyl-4-pyridyl)-2-[[(2R,4R)-4-hydroxypyrrolidin-2-yl]methyl]-7-phenyl-[1,2,4]triazolo[4,3-c]pyrimidin-3-one] |  |  | 8.2 | 5.9 |
| Cc1cc(-c2c(-c3ccccc3)nc(N)n3c(=O)n(CCN4CCCC4)nc23)cc(C)n1 [Example 2-26, 5-amino-8-(2,6-dimethyl-4-pyridyl)-7-phenyl-2-(2-pyrrolidin-1-ylethyl)-[1,2,4]triazolo[4,3-c]pyrimidin-3-one] |  |  | 6.9 | <5.7 |
| COc1cc(-c2c(-c3ccccc3)nc(N)n3c(=O)n(C[C@H]4CCCO4)nc23)cc(C)n1 [Example 2-27, 5-amino-8-(2-methoxy-6-methyl-4-pyridyl)-7-phenyl-2-[[(2R)-tetrahydrofuran-2-yl]methyl]-[1,2,4]triazolo[4,3-c]pyrimidin-3one] |  |  | 9.6 | 6.7 |
